Experimental data as given in paper PMC8152971, “Valeriana rigida Ruiz & Pav. Root Extract: A New Source of Caffeoylquinic Acids with Antioxidant and Aldose Reductase Inhibitory Activities” (Foods, 2021).
“And” between values parts separate entries of the source, which are not always exact repeats. Identical values can stand only once. Like-named read-outs stand apart in the source and are kept apart here. Marks after values point to notes of the source that are not given here.

Experiments:
[1] = DPPH radical scavenging assay; details: Trolox equivalent antioxidant capacity, mean ± SD, n ≥ 3
Procedure: The experiment was carried out as previously described. […] Thereafter, the absorbance was measured using a microplate reader (EL800, Bio-Tek Instruments, Winooski, VT, USA) at 570 nm.

[2] = ABTS radical scavenging assay; details: Trolox equivalent antioxidant capacity, mean ± SD, n ≥ 3
Procedure: The experiment was conducted as previously described. In brief, 3.5 mM of potassium persulfate aqueous solution was used to prepare 0.2 mM of ABTS diammonium salt. The solution was diluted 10-fold using distilled water and allowed to produce ABTS radicals (ABTS^+) by keeping the solution in the dark for 14 h at room temperature. […] Equation (1) was used to calculate the ABTS^+ scavenging activity (%), where Acontrol is the absorbance of ABTS^+ solution free of samples, Asample is the absorbance of ABTS^+ solution incubated with a sample, Ablank1 is the absorbance of the test sample free of ABTS^+ solution, and Ablank2 is the absorbance of the diluted potassium persulfate solution.

[3] = Oxygen radical absorbance capacity (ORAC) assay; details: Trolox equivalent antioxidant capacity, mean ± SD, n ≥ 3
Procedure: The oxygen radical absorbance capacity (ORAC) assay was performed as previously described. Briefly, 0. […] Next, 60 µL of AAPH (40 mM) was added to generate peroxyl radicals to initiate the reaction.

[4] = Hypochlorous acid (HOCl) scavenging assay
Procedure: The HOCl scavenging assay was adapted from a previous study using 1,8-diaminonaphthalene as a fluorescence probe for hypochlorite. […] Next, the fluorescence intensity (λex = 360 ± 20 nm, λem = 460 ± 20 nm) was immediately measured using a microplate fluorescence reader (FLx800; Bio-Tek, Winooski, VT, USA). Trolox (final concentration 25–100 µg/mL) was used as a reference antioxidant.

[5] = biological target: T1, rat lens AR homogenate (aldose reductase) (Rattus norvegicus, UniProt P07943); assay: AR inhibition assay; assay type: biochemical, Sprague–Dawley rats
T1 construct: the lenses were removed from the eyes, ground in a mortar; from tissue; host or cells: lens of Sprague–Dawley rats
Procedure: The eyes of 10-week Sprague–Dawley rats (250–280 g) were removed and frozen at −70 °C before use. Thereafter, the lenses were removed from the eyes, ground in a mortar (precooled at −70 °C), and extracted using 0.1 M PBS of pH 6.2 (around 0.5 mL of buffer per two frozen rat lenses).
The AR inhibitory activities of the extract and the separated compounds were determined as described previously. […] Next, the reaction was initiated by adding 20 µL of the substrate (DL-glyceraldehyde dimmer, 25 mM in 0.1 M PBS of pH 7.0), and the values were further measured for 6 min at 340 nm (OD340) using an Epoch microplate spectrophotometer (BioTek Instruments, Winooski, VT, USA). […] The DMSO used for sample preparation was less than 0.4% (v/v) in the reaction system.

[6] = Partition coefficient (K upper/lower) in biphasic CCC solvent systems; assay type: physicochemical
Procedure: The solvent system was screened via HPLC and evaluated according to the partition coefficient (K value) of the target compounds on the principle introduced by Ito [32]. Briefly, four solvent systems comprising EtOAc, n-BuOH, […] solution to 29 mM, and then the corresponding K values of the target compounds under acidic (Kacid) or basic (Kbase) conditions were determined, as previously described: each acidified or basified solvent system was partitioned to upper layer and lower layer. Thereafter, the extract (about 1–2 mg) was prepared in a 1.5 mL tube and dissolved by adding equal volumes (each 500 µL) of the upper layer and lower layers, which were mixed by a vortex mixer and centrifuged for about 20 s using a C1301 Mini Centrifuge (Labnet International, South Korea). Next, the upper and lower phase sample solutions were respectively pipetted (each 200 µL) into a new 1.5 mL-tube and evaporated by nitrogen gas. Each sample residue was redissolved using 200 µL of MeOH and subjected to HPLC analysis with an injection volume of 20 µL. The K value was calculated as K = Aupper/Alower, where Aupper and Alower are the HPLC peak areas of the target component in the upper and lower phases, respectively.

[7] = read-out: AR inhibitory Activity Inhibition (%)
[8] = rat lens AR, read-out: AR inhibitory Activity IC50
[9] = EtOAc/H2O, 1:1, 208 mM formic acid
[10] = EtOAc/n-BuOH/H2O, 2:3:5, 30 mM ammonia
[11] = EtOAc/n-BuOH/H2O, 2:3:5, 208 mM formic acid
[12] = EtOAc/n-BuOH/H2O, 3:2:5, 30 mM ammonia
[13] = EtOAc/n-BuOH/H2O, 3:2:5, 208 mM formic acid
[14] = EtOAc/n-BuOH/H2O, 4:1:5, 30 mM ammonia
[15] = EtOAc/n-BuOH/H2O, 4:1:5, 208 mM formic acid

Row | IC50 [5, 8] | K(upper/lower) Value ([6]; EtOAc/H2O, 1:1, 30 mM ammonia) | K(upper/lower) Value [6, 9] | K(upper/lower) Value [6, 10] | K(upper/lower) Value [6, 11] | K(upper/lower) Value [6, 12] | K(upper/lower) Value [6, 13] | K(upper/lower) Value [6, 14] | K(upper/lower) Value [6, 15] | SMILES | TE, DPPH [1] | TE, ABTS [2] | TE, ORAC [3] | HOCl Scavenging Activity Inhibition (%) ([4]; 6.25 µM) | HOCl Scavenging Activity Inhibition (%) ([4]; 12.5 µM) | IC50 ([4]; linear regression) | inhibition at 0.195 µM [5, 7] | inhibition at 0.391 µM [5, 7] | further results
1 | 400 nM | 0.02 | 23.71 | 0.40 | 29.51 | 0.22 | 26.44 | 0.03 | 27.56 | O=C(/C=C/c1ccc(O)c(O)c1)O[C@@H]1C[C@](O)(C(=O)O)C[C@@H](OC(=O)/C=C/c2ccc(O)c(O)c2)[C@H]1OC(=O)/C=C/c1ccc(O)c(O)c1 [3,4,5-triCQA (7), 3,4,5-tri-O-caffeoylquinic acid] | 1.28 ± 0.04 ^a µmol Trolox Equivalents Per µmol Compound | 1.31 ± 0.05 ^a µmol Trolox Equivalents Per µmol Compound | 1.95 ± 0.15 ^b µmol Trolox Equivalents Per µmol Compound | 35.39 ± 1.17% | 52.93 ± 1.02% | 11700 nM | 27.6 ± 2.43% | 49.7 ± 0.94% | HOCl Scavenging Activity Inhibition (%) ([4]; 25 µM): 84.32 ± 3.39%; inhibition at 0.781 µM [5, 7]: 69.8 ± 0.77%
2 |  | 0.02 | 0.49 | 0.01 | 2.49 | 0.05 | 2.03 | 0.00 | 1.36 | O=C(/C=C/c1ccc(O)c(O)c1)O[C@@H]1C[C@@](O)(C(=O)O)C[C@@H](O)[C@@H]1O [3-CQA (1), 3-O-caffeoylquinic acid] |  |  |  |  |  |  |  |  | inhibition at 1.5625 µM ([5]; 1.5625 µM, read-out: AR inhibitory Activity Inhibition (%)): 29.4 ± 3.4%; inhibition at 3.125 µM ([5]; 3.125 µM, read-out: AR inhibitory Activity Inhibition (%)): 45.8 ± 1.75%; inhibition at 6.25 µM ([5]; 6.25 µM, read-out: AR inhibitory Activity Inhibition (%)): 60.1 ± 1.22%; K(upper/lower) Value ([6]; n-BuOH/H2O, 1:1): 0.04; K(upper/lower) Value ([6]; n-BuOH/H2O, 1:1 + 8.7 mM acetic acid): 0.73
3 | 910 nM | 0.01 | 0.95 | 0.01 | 6.86 | 0.03 | 5.48 | 0.01 | 2.43 | O=C(/C=C/c1ccc(O)c(O)c1)O[C@@H]1C[C@](O)(C(=O)O)C[C@@H](O)[C@H]1O [5-CQA (2), 5-O-caffeoylquinic acid] |  |  |  |  |  |  |  | 30.8 ± 2.18% | inhibition at 0.781 µM [5, 7]: 44.2 ± 1.17%; inhibition at 1.563 µM ([5]; 1.563 µM, read-out: AR inhibitory Activity Inhibition (%)): 63.8 ± 2.55%
4 |  |  |  |  |  |  |  |  |  | COc1ccc(-c2cc(=O)c3c(O)cc(O)cc3o2)cc1 [Acacetin (8), acacetin] |  |  |  |  |  |  |  |  | inhibition at 25 µM ([5]; 25 µM, read-out: AR inhibitory Activity Inhibition (%)): 12.3 ± 4.22%; inhibition at 50 µM ([5]; 50 µM, read-out: AR inhibitory Activity Inhibition (%)): 24 ± 0.63%; inhibition at 100 µM ([5]; 100 µM, read-out: AR inhibitory Activity Inhibition (%)): 36.3 ± 3.78%
5 |  |  |  |  |  |  |  |  |  | CC(/C=C1\SC(=S)N(CC(=O)O)C1=O)=C\c1ccccc1 [Epalrestat, epalrestat, reference compound] |  |  |  |  |  |  |  |  | inhibition at 0.01 µg/mL [5, 7]: 21.7 ± 1.25%; inhibition at 0.02 µg/mL [5, 7]: 79.3 ± 1.35%; inhibition at 0.031 µM [5, 7]: 21.7 ± 1.25%; inhibition at 0.04 µg/mL [5, 7]: 91.8 ± 1.84%; inhibition at 0.063 µM [5, 7]: 79.3 ± 1.35%; inhibition at 0.125 µM [5, 7]: 91.8 ± 1.84%
6 |  |  |  |  |  |  |  |  |  | O=c1c(O)c(-c2ccc(O)c(O)c2)oc2cc(O)cc(O)c12 [Quercetin, quercetin, reference compound] |  |  |  |  |  |  |  |  | inhibition at 1.889 µg/mL [5, 7]: 34.8 ± 0.51%; inhibition at 3.778 µg/mL [5, 7]: 46 ± 4.49%; inhibition at 6.25 µM [5, 7]: 34.8 ± 0.51%; inhibition at 7.556 µg/mL [5, 7]: 67 ± 3.22%; inhibition at 12.5 µM [5, 7]: 46 ± 4.49%; inhibition at 25 µM [5, 7]: 67 ± 3.22%
7 |  |  |  |  |  |  |  |  |  | C[C@@H]1O[C@@H](Oc2c(-c3ccc(O)c(O)c3)oc3cc(O)cc(O)c3c2=O)[C@H](O)[C@H](O)[C@H]1O [Quercitrin, quercitrin, reference compound] |  |  |  |  |  |  |  |  | IC50 ([5]; AR Inhibitory Activity IC50, rat lens AR): 103 nM; IC50 ([5]; AR inhibitory Activity IC50, rat lens AR): 102 nM and 100 nM; inhibition at 0.056 µg/mL [5, 7]: 62.33 ± 0.44%; inhibition at 0.063 µM [5, 7]: 32.6 ± 2.7%; inhibition at 0.112 µg/mL [5, 7]: 74.6 ± 1.11%; inhibition at 0.125 µM [5, 7]: 62.33 ± 0.44%; inhibition at 0.25 µM [5, 7]: 74.6 ± 1.11%
8 |  |  |  |  |  |  |  |  |  | Cc1c(C)c2c(c(C)c1O)CCC(C)(C(=O)O)O2 (stereo not drawn) [Trolox, reference compound] |  |  |  |  |  | 34000 nM |  |  | HOCl Scavenging Activity Inhibition (%) ([4]; 6.25 µg/mL): 40.76 ± 0.39%; HOCl Scavenging Activity Inhibition (%) ([4]; 12.5 µg/mL): 66.53 ± 2.54%; HOCl Scavenging Activity Inhibition (%) ([4]; 25 µM): 40.76 ± 0.39%; HOCl Scavenging Activity Inhibition (%) ([4]; 25 µg/mL): 97.07 ± 5.45%; HOCl Scavenging Activity Inhibition (%) ([4]; 50 µM): 66.53 ± 2.54%; HOCl Scavenging Activity Inhibition (%) ([4]; 100 µM): 97.07 ± 5.45%; HOCl Scavenging Activity IC50 ([4]; linear regression): 8.52 µg/mL

Row | SMILES | IC50 [5, 8] | K(upper/lower) Value ([6]; EtOAc/H2O, 1:1, 30 mM ammonia) | K(upper/lower) Value [6, 9] | K(upper/lower) Value [6, 10] | K(upper/lower) Value [6, 11] | K(upper/lower) Value [6, 12] | K(upper/lower) Value [6, 13] | K(upper/lower) Value [6, 14] | K(upper/lower) Value [6, 15] | TE, DPPH [1] | TE, ABTS [2] | TE, ORAC [3] | HOCl Scavenging Activity Inhibition (%) ([4]; 6.25 µM) | HOCl Scavenging Activity Inhibition (%) ([4]; 12.5 µM) | IC50 ([4]; linear regression) | inhibition at 0.195 µM [5, 7] | inhibition at 0.391 µM [5, 7] | further results
9 | O=C(/C=C/c1ccc(O)c(O)c1)O[C@H]1[C@H](O)C[C@](O)(C(=O)O)C[C@H]1OC(=O)/C=C/c1ccc(O)c(O)c1 [3,4-diCQA (4), 3,4-di-O-caffeoylquinic acid] | 220 nM | 0.02 | 3.49 | 0.04 | 20.24 | 0.03 | 16.14 | 0.02 | 4.86 | 1.09 ± 0.09 ^b µmol Trolox Equivalents Per µmol Compound | 1.06 ± 0.06 ^c µmol Trolox Equivalents Per µmol Compound | 3.26 ± 0.10 ^a µmol Trolox Equivalents Per µmol Compound | 50.28 ± 0.19% | 59.15 ± 1.19% | 5780 nM | 50.4 ± 3.34% | 68.67 ± 0.68% | HOCl Scavenging Activity Inhibition (%) ([4]; 3.125 µM): 46.68 ± 2.87%; inhibition at 0.098 µM [5, 7]: 18.9 ± 2.43%
10 | O=C(/C=C/c1ccc(O)c(O)c1)O[C@@H]1C[C@](O)(C(=O)O)C[C@@H](OC(=O)/C=C/c2ccc(O)c(O)c2)[C@H]1O [3,5-diCQA (5), 3,5-di-O-caffeoylquinic acid] |  | 0.01 | 7.71 | 0.12 | 38.56 | 0.01 | 35.91 | 0.01 | 14.23 | 0.86 ± 0.08 ^c µmol Trolox Equivalents Per µmol Compound | 0.89 ± 0.05 ^d µmol Trolox Equivalents Per µmol Compound | 2.13 ± 0.07 ^b µmol Trolox Equivalents Per µmol Compound | 56.13 ± 3.01% | 62.86 ± 1.23% | 2930 nM | 62.3 ± 1.33% | 75.6 ± 1.33% | HOCl Scavenging Activity Inhibition (%) ([4]; 3.125 µM): 49.56 ± 1.23%; inhibition at 0.098 µM [5, 7]: 35.4 ± 1.33%
